Assay in all cases: NCI tumour cell line growth inhibition, 48 h
Assay [1] concerns SNB-75 CNS.
For assay [2], the system named is KM12 colon.
The subject of assay [3] is MDA-N.
Assay [4] relates to MDA-MB-231 breast.
Assay [5] concerns HT29 colon.
Assay [6] deals with HOP-62 NSCLC.
The test system of assay [7] is HCT-116 colon.
Assay [8] concerns NCI-H226 lung.
Assay [9] concerns TK-10 renal.
Assay [10] concerns ACHN renal.
Assay [11] concerns HL-60(TB) leukemia.
Assay [12] concerns HOP-92 NSCLC.
Assay [13] deals with UACC-62 melanoma.
Assay [14] concerns IGROV1 ovarian.
Assay [15] relates to SK-MEL-5 melanoma.

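Compound exposure: 48 hours, 5 concentrations, 96-well plates. TGI: concentration producing complete growth inhibition.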

Regarding `Cc1cn(CCCCOC(=O)NC(CCCNC(N)=O)C(=O)O)c(=O)[nH]c1=O` (centres undefined), the TGI in [1], in assay [2], in [3], in [4], in assay [5] and in assay [6] was over 100 µM each time. Further, the TGI in assay [7], in [8], in [9], in [10], in assay [11] and in [12] was over 100 µM in each case. For the same molecule, the TGI in assay [13] and in assay [14] was over 100 µM throughout.
On to `CCOC(=O)c1nc2cc(C(F)(F)F)ccc2nc1Oc1ccc(C(=O)OC)cc1`, for which the TGI in assay [1], in assay [2], in assay [3], in [4], in [15] and in assay [7] was over 100 µM in each case. Moreover, the TGI in [8], in [9], in assay [10], in assay [11], in assay [12] and in assay [13] was over 100 µM throughout. The same molecule came in with a TGI in assay [14] of over 100 µM.
For the molecule `CN(C)c1ccc(/C=C2\N=C(c3ccccc3)N(/N=C3\C(=O)Nc4ccccc43)C2=O)cc1`, the TGI in assay [1], in [2], in assay [3], in assay [4], in assay [5] and in assay [6] was over 100 µM each time. The TGI in assay [15], in assay [7], in assay [9], in [10], in [11] and in [12] was over 100 µM in each case. For the same molecule, the TGI in assay [13] and in [14] was over 100 µM in each case.
Take `C[N+]1(CCCC[N+]2(C)CCCCCCC2)CCCCCCC1`: the TGI in [2], in [3], in assay [4], in assay [5], in [6] and in assay [15] was over 100 µM in each case. In addition, the TGI in [7], in assay [8], in [9], in assay [10], in assay [11] and in [12] was over 100 µM each time. Also, the TGI in assay [13] and in assay [14] was over 100 µM each time.
For the molecule `CC(C)N(C(=O)c1ccc(NCc2cc(O)ccc2O)cc1)C(C)C`, the TGI was over 100 µM in [1]; 42 µM in assay [3]; 32 µM in [4]; 35 µM in assay [5]; 69.4 µM in [6]; 37.8 µM in [15]. Further, the TGI is 29.6 µM in assay [7]; 45.3 µM in assay [8]; 29.5 µM in assay [9]; 26.7 µM in assay [10]; over 100 µM in [11]; 24.9 µM in assay [12]. Also, the TGI in assay [13] was 28.9 µM; in [14], 64.8 µM.
In the case of `CCN(CC)CCOCC1CCCN2CCCCC12` (centres undefined), the TGI in [1], in assay [2], in assay [3], in assay [4], in assay [5] and in assay [6] was over 100 µM each time. In addition, the TGI in [15], in assay [7], in assay [8], in assay [9], in assay [10] and in assay [11] was over 100 µM in each case. Moreover, the TGI in assay [12] and in assay [13] was over 100 µM throughout.
On to `N#Cc1nc(C2SCCCS2)oc1N`, for which the TGI in [1] was 0.843 µM; in assay [2], over 100 µM; in assay [3], over 100 µM; in assay [4], over 100 µM; in assay [5] it was over 100 µM; in assay [6] it was over 100 µM. In addition, the TGI in [15], in assay [7], in assay [9], in assay [10], in assay [11] and in [12] was over 100 µM in each case. Also, the TGI in assay [13] and in assay [14] was over 100 µM each time.
Consider `Cc1nc2ccc(S(=O)(=O)Nc3ccccc3Cl)cc2c(=O)n1NC(=O)CNc1ccccc1Cl`, for which the TGI in [1], in [2], in assay [3], in assay [4], in [5] and in [6] was over 100 µM each time. Further, the TGI in assay [7], in [8], in [9], in [10], in assay [11] and in assay [12] was over 100 µM throughout. Further, the TGI in [13] and in assay [14] was over 100 µM throughout.
With `Cc1cn(C2CC(N=[N+]=[N-])C(CO)O2)c(=O)n(CCCCO)c1=O` (centres undefined), the TGI in assay [1], in [2], in assay [3], in assay [4], in [5] and in assay [6] was over 100 µM throughout. For the same molecule, the TGI in [7], in [8], in assay [9], in [10], in assay [11] and in assay [12] was over 100 µM each time. The TGI in assay [13] and in assay [14] was over 100 µM throughout.
For the molecule `COC(=O)C(CCSc1ccccc1)C(=O)OC`, the TGI in [1], in assay [2], in [3], in assay [4], in [5] and in [6] was over 100 µM each time. Further, the TGI in assay [15], in [7], in assay [8], in assay [10], in assay [11] and in assay [12] was over 100 µM throughout. The TGI in assay [13] and in [14] was over 100 µM each time.

Values taken from PubChem BioAssay (NCI).
